US20220249665A1, “TRANSFECTION METHOD” (Takeda Pharmaceutical Company Limited, priority 2019, published 2022)

Tested on: C2C12 cells
Assay: Introduction of low-molecular-weight compound (FITC) into skeletal muscle cell
Type: cell-based
Method: C2C12 cells (3×10^4 cells, 0.5 mL) in 10% FBS-containing DMEM medium were seeded in 48 wells. After removing the medium, 0.5 ml of ultrafine bubble/DMEM medium containing 0.38 μg of FITC was added. An ultrafine bubble/DMEM medium prepared by adding 1 L of the ultrafine bubble aqueous solution prepared in Reference Example 1 to a DMEM medium powder, and adding 2 g/L NaHCO3 and 10% FBS was used as a transfection medium.
After adding the FITC-containing medium, ultrasound exposure was performed for 10 sec at a frequency of 1 MHz and output intensities of 100, 250, 500 mW/cm^2 and using an ultrasound generator (NEPAGENE). After ultrasound exposure, the cells were cultured for 2 hr, then the transfection medium was removed, and the cells were cultured in DMEM medium (culture medium) for 48 hr.
After completion of the culture, the cells were collected, completely lysed with 0.5 mL of cell lysis solution, and the fluorescent intensity of FITC was measured with a spectrofluoro-photometer. The amount of FITC uptake was evaluated as a relative amount by proportional calculation with the measured value of Control (ultrafine bubbles alone) as 1.

## O=C1OC2(c3ccc(O)cc3Oc3cc(O)ccc32)c2ccc(N=C=S)cc21 [FITC]
Ultrafine bubbles (negatively-charged, C3F8) combined with ultrasound 1 MHz, 10 sec, C2C12, 0.38 μg FITC
  introduction efficiency of FITC into the cell: remarkably increased
Ultrafine bubbles + ultrasound 100 mW/cm^2
  introduction efficiency of FITC: increasing tendency was observed
Ultrafine bubbles + ultrasound 250 mW/cm^2
  introduction efficiency of FITC: particularly superior introduction efficiency
Ultrafine bubbles + ultrasound 250 or 500 mW/cm^2
  introduction efficiency of FITC: increased significantly
